Experimental data reported in the supplement of paper PMC10307832.

Columns and labels:
Assay in all cases: relative viability (nuclei count vs DMSO), 5 days (fraction); higher = more cells survive
[1] = compound: CC1=C(C(=NN1)C)CC2=C(C3=C(S2)N(C(=O)N(C3=O)C)CC(C)C)C(=O)N4C[C@@H](CO4)O + C[C@@H](Oc1cc(-c2cnn(C3CCNCC3)c2)cnc1N)c1c(Cl)ccc(F)c1Cl [Crizotinib] (partner 1 µM)
In short: (§1)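 Values are medians from duplicate plates. Each reflects relative viability, defined as the nuclei count of treated wells over that of vehicle wells. Lung cancer cell lines in 1536-well plates were pin-tool dosed one day after seeding with one drug alone or with a fixed anchor-drug dose plus five library-drug doses (not always all listed) in √10 steps, then fixed, stained and imaged at 4× after 5 days.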

[2] = compound: CC1=C(C(=NN1)C)CC2=C(C3=C(S2)N(C(=O)N(C3=O)C)CC(C)C)C(=O)N4C[C@@H](CO4)O + CCNC(=O)c1noc(-c2cc(C(C)C)c(O)cc2O)c1-c1ccc(CN2CCOCC2)cc1 [Luminespib] (partner 0.01 µM)
In short: as §1

IDH-C35 + OSI-027 = compound: Cc1ccccc1C(C(=O)NC1CCCCC1)N(C(=O)Cn1ccnc1C)c1cccc(F)c1 [IDH-C35] + COc1cccc2cc(-c3nc([C@H]4CC[C@H](C(=O)O)CC4)n4ncnc(N)c34)[nH]c12 [OSI-027] (partner 0.5 µM)
In short: as §1

[3] = compound: CC1=C(C(=NN1)C)CC2=C(C3=C(S2)N(C(=O)N(C3=O)C)CC(C)C)C(=O)N4C[C@@H](CO4)O + Nc1nc2[nH]cc(CCc3ccc(C(=O)N[C@@H](CCC(=O)O)C(=O)O)cc3)c2c(=O)[nH]1 [Pemetrexed] (partner 0.2 µM)
In short: as §1

Cell Line: NCI-H650
- relative viability ([1]; first compound 0.0025 µM): 0.949
- relative viability ([1]; first compound 0.007906 µM): 0.75
- relative viability ([1]; first compound 0.025 µM): 0.631
- relative viability ([1]; first compound 0.07906 µM): 0.77
- relative viability ([1]; first compound 0.25 µM): 0.773
- relative viability ([2]; first compound 0.0025 µM): 0.84
- relative viability ([2]; first compound 0.007906 µM): 0.798
- relative viability ([2]; first compound 0.025 µM): 0.72
- relative viability ([2]; first compound 0.07906 µM): 0.829
- relative viability ([2]; first compound 0.25 µM): 0.951
- relative viability (IDH-C35 + OSI-027; first compound 0.08 µM): 0.558
- relative viability (IDH-C35 + OSI-027; first compound 0.253 µM): 0.571
- relative viability (IDH-C35 + OSI-027; first compound 0.8 µM): 0.466
- relative viability (IDH-C35 + OSI-027; first compound 8 µM): 0.509
- relative viability ([3]; first compound 0.0025 µM): 0.983
- relative viability ([3]; first compound 0.007906 µM): 0.989
- relative viability ([3]; first compound 0.025 µM): 0.775
- relative viability ([3]; first compound 0.07906 µM): 0.949
- relative viability ([3]; first compound 0.25 µM): 0.957

Cell Line: NCI-H661
- relative viability ([1]; first compound 0.007906 µM): 0.965
- relative viability ([1]; first compound 0.025 µM): 0.938
- relative viability ([1]; first compound 0.07906 µM): 0.988
- relative viability ([1]; first compound 0.25 µM): 1.07
- relative viability ([2]; first compound 0.0025 µM): 0.877
- relative viability ([2]; first compound 0.007906 µM): 0.938
- relative viability ([2]; first compound 0.025 µM): 0.824
- relative viability ([2]; first compound 0.07906 µM): 0.913
- relative viability ([2]; first compound 0.25 µM): 0.885
- relative viability (IDH-C35 + OSI-027; first compound 0.08 µM): 0.756
- relative viability (IDH-C35 + OSI-027; first compound 0.253 µM): 0.68
- relative viability (IDH-C35 + OSI-027; first compound 0.8 µM): 0.725
- relative viability (IDH-C35 + OSI-027; first compound 2.53 µM): 0.695
- relative viability (IDH-C35 + OSI-027; first compound 8 µM): 0.746
- relative viability ([3]; first compound 0.0025 µM): 0.922
- relative viability ([3]; first compound 0.007906 µM): 0.973
- relative viability ([3]; first compound 0.025 µM): 0.899
- relative viability ([3]; first compound 0.07906 µM): 0.924
- relative viability ([3]; first compound 0.25 µM): 0.899

Cell Line: NCI-H838
- relative viability ([1]; first compound 0.0025 µM): 0.869
- relative viability ([1]; first compound 0.007906 µM): 1.02
- relative viability ([1]; first compound 0.025 µM): 0.747
- relative viability ([1]; first compound 0.07906 µM): 0.809
- relative viability ([1]; first compound 0.25 µM): 0.885
- relative viability ([2]; first compound 0.0025 µM): 0.295
- relative viability ([2]; first compound 0.007906 µM): 0.265
- relative viability ([2]; first compound 0.025 µM): 0.312
- relative viability ([2]; first compound 0.07906 µM): 0.273
- relative viability ([2]; first compound 0.25 µM): 0.239
- relative viability (IDH-C35 + OSI-027; first compound 0.08 µM): 0.406
- relative viability (IDH-C35 + OSI-027; first compound 0.253 µM): 0.402
- relative viability (IDH-C35 + OSI-027; first compound 0.8 µM): 0.369
- relative viability (IDH-C35 + OSI-027; first compound 2.53 µM): 0.383
- relative viability (IDH-C35 + OSI-027; first compound 8 µM): 0.398
- relative viability ([3]; first compound 0.0025 µM): 0.261
- relative viability ([3]; first compound 0.007906 µM): 0.229
- relative viability ([3]; first compound 0.025 µM): 0.236
- relative viability ([3]; first compound 0.07906 µM): 0.243
- relative viability ([3]; first compound 0.25 µM): 0.224

Cell Line: NCI-H1355
- relative viability ([1]; first compound 0.0025 µM): 1.07
- relative viability ([1]; first compound 0.007906 µM): 1.09
- relative viability ([1]; first compound 0.025 µM): 1.09
- relative viability ([1]; first compound 0.07906 µM): 1.05
- relative viability ([1]; first compound 0.25 µM): 1.14
- relative viability ([2]; first compound 0.0025 µM): 0.836
- relative viability ([2]; first compound 0.007906 µM): 0.617
- relative viability ([2]; first compound 0.025 µM): 0.684
- relative viability ([2]; first compound 0.07906 µM): 0.778
- relative viability ([2]; first compound 0.25 µM): 0.724
- relative viability (IDH-C35 + OSI-027; first compound 0.08 µM): 0.422
- relative viability (IDH-C35 + OSI-027; first compound 0.253 µM): 0.445
- relative viability (IDH-C35 + OSI-027; first compound 0.8 µM): 0.382
- relative viability (IDH-C35 + OSI-027; first compound 2.53 µM): 0.466
- relative viability (IDH-C35 + OSI-027; first compound 8 µM): 0.395
- relative viability ([3]; first compound 0.0025 µM): 1.09
- relative viability ([3]; first compound 0.007906 µM): 1.08
- relative viability ([3]; first compound 0.025 µM): 1.04
- relative viability ([3]; first compound 0.07906 µM): 0.847
- relative viability ([3]; first compound 0.25 µM): 0.927

Cell Line: NCI-H1437
- relative viability ([1]; first compound 0.0025 µM): 0.967
- relative viability ([1]; first compound 0.007906 µM): 0.928
- relative viability ([1]; first compound 0.025 µM): 0.875
- relative viability ([1]; first compound 0.07906 µM): 0.949
- relative viability ([1]; first compound 0.25 µM): 1.09
- relative viability ([2]; first compound 0.0025 µM): 1.13
- relative viability ([2]; first compound 0.007906 µM): 1.14
- relative viability ([2]; first compound 0.025 µM): 1.04
- relative viability ([2]; first compound 0.07906 µM): 1.19
- relative viability ([2]; first compound 0.25 µM): 1.16
- relative viability (IDH-C35 + OSI-027; first compound 0.08 µM): 0.876
- relative viability (IDH-C35 + OSI-027; first compound 0.253 µM): 0.907
- relative viability (IDH-C35 + OSI-027; first compound 0.8 µM): 0.842
- relative viability (IDH-C35 + OSI-027; first compound 2.53 µM): 0.828
- relative viability (IDH-C35 + OSI-027; first compound 8 µM): 0.756
- relative viability ([3]; first compound 0.0025 µM): 0.341
- relative viability ([3]; first compound 0.007906 µM): 0.322
- relative viability ([3]; first compound 0.025 µM): 0.331
- relative viability ([3]; first compound 0.07906 µM): 0.354
- relative viability ([3]; first compound 0.25 µM): 0.316

Cell Line: NCI-H1563
- relative viability ([1]; first compound 0.0025 µM): 0.91
- relative viability ([1]; first compound 0.007906 µM): 0.92
- relative viability ([1]; first compound 0.025 µM): 0.87
- relative viability ([1]; first compound 0.07906 µM): 0.889
- relative viability ([1]; first compound 0.25 µM): 0.892
- relative viability ([2]; first compound 0.0025 µM): 0.553
- relative viability ([2]; first compound 0.007906 µM): 0.542
- relative viability ([2]; first compound 0.025 µM): 0.524
- relative viability ([2]; first compound 0.07906 µM): 0.492
- relative viability ([2]; first compound 0.25 µM): 0.509
- relative viability (IDH-C35 + OSI-027; first compound 0.08 µM): 0.769
- relative viability (IDH-C35 + OSI-027; first compound 0.253 µM): 0.721
- relative viability (IDH-C35 + OSI-027; first compound 0.8 µM): 0.788
- relative viability (IDH-C35 + OSI-027; first compound 2.53 µM): 0.768
- relative viability (IDH-C35 + OSI-027; first compound 8 µM): 0.727
- relative viability ([3]; first compound 0.0025 µM): 0.796
- relative viability ([3]; first compound 0.007906 µM): 0.795
- relative viability ([3]; first compound 0.025 µM): 0.686
- relative viability ([3]; first compound 0.07906 µM): 0.742
- relative viability ([3]; first compound 0.25 µM): 0.857

Cell Line: NCI-H1650
- relative viability ([1]; first compound 0.0025 µM): 1.05
- relative viability ([1]; first compound 0.007906 µM): 1.08
- relative viability ([1]; first compound 0.025 µM): 0.973
- relative viability ([1]; first compound 0.07906 µM): 1.04
- relative viability ([1]; first compound 0.25 µM): 1.06
- relative viability ([2]; first compound 0.0025 µM): 0.188
- relative viability ([2]; first compound 0.007906 µM): 0.192
- relative viability ([2]; first compound 0.025 µM): 0.203
- relative viability ([2]; first compound 0.07906 µM): 0.192
- relative viability ([2]; first compound 0.25 µM): 0.217
- relative viability (IDH-C35 + OSI-027; first compound 0.08 µM): 0.667
- relative viability (IDH-C35 + OSI-027; first compound 0.253 µM): 0.593
- relative viability (IDH-C35 + OSI-027; first compound 0.8 µM): 0.637
- relative viability (IDH-C35 + OSI-027; first compound 2.53 µM): 0.659
- relative viability (IDH-C35 + OSI-027; first compound 8 µM): 0.571
- relative viability ([3]; first compound 0.0025 µM): 0.321
- relative viability ([3]; first compound 0.007906 µM): 0.406
- relative viability ([3]; first compound 0.025 µM): 0.367
- relative viability ([3]; first compound 0.07906 µM): 0.369
- relative viability ([3]; first compound 0.25 µM): 0.321

Cell Line: NCI-H1651
- relative viability ([1]; first compound 0.0025 µM): 0.807
- relative viability ([1]; first compound 0.007906 µM): 0.857
- relative viability ([1]; first compound 0.025 µM): 0.822
- relative viability ([1]; first compound 0.07906 µM): 0.804
- relative viability ([1]; first compound 0.25 µM): 0.786
- relative viability ([2]; first compound 0.0025 µM): 0.843
- relative viability ([2]; first compound 0.007906 µM): 0.762
- relative viability ([2]; first compound 0.025 µM): 0.969
- relative viability ([2]; first compound 0.07906 µM): 0.855
- relative viability ([2]; first compound 0.25 µM): 1.09
- relative viability (IDH-C35 + OSI-027; first compound 0.08 µM): 0.7
- relative viability (IDH-C35 + OSI-027; first compound 0.253 µM): 0.686
- relative viability (IDH-C35 + OSI-027; first compound 0.8 µM): 0.746
- relative viability (IDH-C35 + OSI-027; first compound 2.53 µM): 0.644
- relative viability (IDH-C35 + OSI-027; first compound 8 µM): 0.703
- relative viability ([3]; first compound 0.0025 µM): 0.587
- relative viability ([3]; first compound 0.007906 µM): 0.598
- relative viability ([3]; first compound 0.025 µM): 0.531
- relative viability ([3]; first compound 0.07906 µM): 0.56
- relative viability ([3]; first compound 0.25 µM): 0.53
